Laboratory results published in EP1582590A1, “Sequential intracellular screening method” (Aptanomics, priority 2004, dated 2005).
Where two headings read alike, the source gives them in different places.

Columns and labels:
Assay type in all cases: cell-based
[1] = molecular target: T1, interaction between Trα and NCoR (Homo sapiens, UniProt P10827); assay: dual (duplex) two-hybrid assay, two yeast populations mixed in one well, ruc signal
T1 construct: expressed in transfected cells; host or cells: Saccharomyces cerevisiae TB50 (WT and ERG6-deleted)
T1 sequence (P10827 1-410 isoform P10827-2): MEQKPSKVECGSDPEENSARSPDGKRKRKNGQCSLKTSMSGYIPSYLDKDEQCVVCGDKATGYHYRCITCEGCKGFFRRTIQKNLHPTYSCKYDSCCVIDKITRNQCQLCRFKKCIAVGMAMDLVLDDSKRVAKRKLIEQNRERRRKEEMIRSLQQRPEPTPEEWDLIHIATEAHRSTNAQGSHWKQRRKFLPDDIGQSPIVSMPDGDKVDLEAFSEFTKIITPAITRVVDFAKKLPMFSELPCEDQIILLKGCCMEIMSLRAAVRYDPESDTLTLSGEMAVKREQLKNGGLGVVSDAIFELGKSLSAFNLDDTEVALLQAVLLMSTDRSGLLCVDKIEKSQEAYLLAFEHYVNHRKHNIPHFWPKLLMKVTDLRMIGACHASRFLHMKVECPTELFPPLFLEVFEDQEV
Method: (§1) Yeast strains TB50 WT and TB50 ERG6 were transformed as described in Figure 1. They were grown from frozen transformants. For each strain, the two yeast cultures containing the two protein interactions were mixed together and delivered into a microwell plate. […] Experiments were performed in duplicates. The values are normalized with the signals obtained in presence of DMSO.
(§2) 20µl of yeast cultures were delivered into 96 well half area white plates (Coming-Costar, ref. 3693). When applicable, 2µl of either DMSO 10% or 10µM of small molecules were added. 2µl of Galactose 20% were added to the wells to induce the expression of the preys. When two different yeast cultures were mixed in a single well, 10µl of each culture were used, to reach a total of 20µl. Plates were incubated at room temperature and left non-agitated for various times. […] Briefly, to lyse the yeast and reveal the activity of firefly luciferase, 25µl of reagent was added and the plates were incubated for another 40 to 60min at room temperature, without agitation, before being read in a luminometer. To reveal the activity of Renilla luciferase, 25µl of "stop&glo reagent" were added to the wells and the plates were incubated for another 60min at room temperature, without agitation, before a second reading. Luminescence was measured by a Trilux (Perkin Elmer) setting the integration at 1sec/well. […]

[2] = molecular target: TGF-β-R/FKBP12 (Rattus norvegicus, UniProt Q62658); assay: luminescent yeast two-hybrid assay, inhibition of protein interaction by small molecules (luc reporter)
Chain of TGF-β-R/FKBP12 (Q62658 whole entry): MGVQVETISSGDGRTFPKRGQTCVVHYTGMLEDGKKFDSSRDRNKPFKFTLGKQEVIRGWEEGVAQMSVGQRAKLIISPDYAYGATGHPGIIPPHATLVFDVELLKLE
Chain of TGF-β-R/FKBP12 (P80204 146-501 partner): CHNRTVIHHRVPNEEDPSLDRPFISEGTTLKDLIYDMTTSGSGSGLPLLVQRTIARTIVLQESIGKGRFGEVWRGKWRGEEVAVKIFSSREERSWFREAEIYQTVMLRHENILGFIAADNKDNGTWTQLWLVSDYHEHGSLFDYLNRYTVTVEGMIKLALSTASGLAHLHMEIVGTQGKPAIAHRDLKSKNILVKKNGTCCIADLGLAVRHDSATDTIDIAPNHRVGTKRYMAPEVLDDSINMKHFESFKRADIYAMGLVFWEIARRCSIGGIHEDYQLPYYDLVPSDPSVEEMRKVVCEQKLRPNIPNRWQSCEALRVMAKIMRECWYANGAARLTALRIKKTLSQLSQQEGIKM
Method: They were grown from frozen transformants.
20µl of yeast cultures were delivered into 96 well half area white plates (Coming-Costar, ref. 3693). When applicable, 2µl of either DMSO 10% or 10µM of small molecules were added. 2µl of Galactose 20% were added to the wells to induce the expression of the preys. When two different yeast cultures were mixed in a single well, 10µl of each culture were used, to reach a total of 20µl. Plates were incubated at room temperature and left non-agitated for various times. To reveal the activity of both luciferases, a Dual-Glo™ luciferase assay system was used (Promega, ref. E2920) according to the instructions of the manufacturer. Briefly, to lyse the yeast and reveal the activity of firefly luciferase, 25µl of reagent was added and the plates were incubated for another 40 to 60min at room temperature, without agitation, before being read in a luminometer. To reveal the activity of Renilla luciferase, 25µl of "stop&glo reagent" were added to the wells and the plates were incubated for another 60min at room temperature, without agitation, before a second reading. Luminescence was measured by a Trilux (Perkin Elmer) setting the integration at 1sec/well. Values are given in LCPS (1LCPS = 100 counts per sec).

[3] = tested on: lexA-TGFβ-R and B42-FKBP12; assay: dual (duplex) two-hybrid assay, two yeast populations mixed in one well, luc signal
Method: as §1, §2

SMILES | inhibition of the ruc two-hybrid signal ([1]; ERG6 deleted strain, high concentration of FK506, non-cognate interaction, duplex, induction time 5h) | inhibition at 10 µM ([2]; read-out: % Inhibition 10µM, Addition of compound C 23h after induction of prey (partner B), plates read 5h later, TB50 WT) | inhibition at 10 µM ([2]; read-out: % Inhibition 10µM, Addition of compound C before induction of prey (partner B), 5h induction time, TB50 WT) | inhibition at 10 µM ([2]; read-out: inhibition of two-hybrid signals, 10µM FK506, maximum inhibition after 4h of induction time) | effect on ruc two-hybrid signal [1] | effect on luc two-hybrid signal [3]
C=CC[C@@H]1/C=C(\C)C[C@H](C)C[C@H](OC)[C@H]2O[C@@](O)(C(=O)C(=O)N3CCCC[C@H]3C(=O)O[C@H](/C(C)=C/[C@@H]3CC[C@@H](O)[C@H](OC)C3)[C@H](C)[C@@H](O)CC1=O)[C@H](C)C[C@@H]2OC [FK506] | 40% | 46% | 80% | > 90% |  | 
C[C@@H]1C[C@@H]([C@H](O)CC2CC(=O)NC(=O)C2)C(=O)[C@@H](C)C1 [cycloheximide] |  |  |  |  | strongly inhibited both two-hybrid signals | strongly inhibited both two-hybrid signals
